Our source for the Tm values is ChEMBL document CHEMBL5154904, “Discovery and Structural Basis of the Selectivity of Potent Cyclic Peptide Inhibitors of MAGE-A4” (J Med Chem, 2022).

Positions of bridges follow the written chain, without caps; N, C: chain ends. Residues, ends and D or L forms follow the SMILES beside them.

This test relates to T1, Melanoma-associated antigen 4 (Homo sapiens), P43358 [E225A].
T1 sequence (whole entry): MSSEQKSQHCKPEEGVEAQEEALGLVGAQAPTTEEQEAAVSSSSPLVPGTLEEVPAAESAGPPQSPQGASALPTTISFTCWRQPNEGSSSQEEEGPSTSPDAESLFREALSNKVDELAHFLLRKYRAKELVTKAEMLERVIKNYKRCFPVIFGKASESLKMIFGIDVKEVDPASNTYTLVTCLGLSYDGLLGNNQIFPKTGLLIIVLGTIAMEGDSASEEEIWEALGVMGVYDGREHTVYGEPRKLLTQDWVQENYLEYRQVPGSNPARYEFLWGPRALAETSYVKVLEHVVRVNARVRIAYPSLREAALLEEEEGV
In words: Binding affinity to recombinant N-terminal His-tagged MAGEA4-MH domain E225A mutant (unknown origin) expressed in Escherichia coli BL21-(DE3) assessed as increase in thermal stability by SYPRO orange dye based differential scanning fluorimetry. The conditions noted are these: dose <= 10.0 µM. On the technique in general: DSF heats the sample and reads unfolding from a dye or from intrinsic fluorescence.

`CC[C@H](C)[C@@H]1NC(=O)[C@H](Cc2ccc(O)cc2)NC(=O)CSC[C@@H](C(N)=O)NC(=O)[C@H](CC(N)=O)NC(=O)[C@H](Cc2cnc[nH]2)NC(=O)[C@H](Cc2ccc(O)cc2)NC(=O)[C@H](CC(=O)O)NC(=O)[C@H](Cc2ccc(O)cc2)NC(=O)[C@H](CC(C)C)NC(=O)[C@H](CCCNC(=N)N)NC1=O` ({CH2CO}-YIRLYDYHNC-NH2; thioether N-10): the Tm was below 3.5 °C.
